In ChEMBL document CHEMBL3045351, “A 4-(o-methoxyphenyl)-2-aminothiazole: an anti-quorum sensing compound” (2013):
In brackets after ≈: the same amount, converted by molar mass. Activity calls are given as the source filed them. The calls are words filed in the database; no cut-off is given here.

Columns and labels:
Escherichia coli [1] = experiment: Antibacterial activity against Escherichia coli NCIM 2931 incubated for 12 hr followed by subculturing measured after 24 hr by colony counting method; type: functional
Bacillus subtilis [2] = experiment: Induction of ROS production in Bacillus subtilis NCIM 2063 assessed as morphological changes at MIC50 concentration after 3 hr by scanning electron microscopic analysis; type: functional, organism-based
Pseudomonas aeruginosa [3] = experiment: Antiquorum-sensing activity against Pseudomonas aeruginosa PAO1 cells assessed as scattered cells at 25 ug/ml after 18 hr by scanning electron microscopic analysis; type: functional, organism-based
Bacillus subtilis [4] = experiment: Antibacterial activity against Bacillus subtilis NCIM 2063 incubated for 12 hr followed by subculturing measured after 24 hr by colony counting method; type: functional
Bacillus subtilis [5] = experiment: Induction of ROS production in Bacillus subtilis NCIM 2063 at MIC50 concentration after 3 hr by DCFH-DA-based fluorimetric analysis; type: functional, organism-based
Escherichia coli [6] = experiment: Antibacterial activity against Escherichia coli NCIM 2931 after 12 hr by resazurin reduction assay; type: functional; conditions: NCIM 2931, 12 h
Pseudomonas aeruginosa [7] = experiment: Antiquorum-sensing activity against Pseudomonas aeruginosa PAO1 cells assessed as decrease in biofilm formation at 25 to 100 ug/ml after 18 hr by crystal violet staining method; type: functional, organism-based
Pseudomonas aeruginosa [8] = experiment: Bactericidal activity against Pseudomonas aeruginosa PAO1 after 18 hr by crystal violet staining method; type: functional, organism-based
Bacillus subtilis [9] = experiment: Antibacterial activity against Bacillus subtilis NCIM 2063 after 12 hr by resazurin reduction assay; type: functional; conditions: NCIM 2063, 12 h

With `COc1ccccc1-c1csc(N)n1` the MBC (Escherichia coli [1]) was 500 µg/mL (≈ 2420 µM), the Activity (Bacillus subtilis [2]) was “inactive” and the Activity (Pseudomonas aeruginosa [3]) was “Active”. The MBC (Bacillus subtilis [4]) was 250 µg/mL (≈ 1210 µM), the Activity (Bacillus subtilis [5]) was “inactive” and the MIC (Escherichia coli [6]) was 500 µg/mL (≈ 2420 µM). The Activity (Pseudomonas aeruginosa [7]) was “Active”, the Activity (Pseudomonas aeruginosa [8]) was “Active” and the MIC (Bacillus subtilis [9]) was 250 µg/mL (≈ 1210 µM).
